The record followed here is patent US12115177B1, “Application of phenyl glucuronide in preparing drug for pre-warning of cancer via induced volatolomics” (Shanghai Jiao Tong University, priority 2023, dated 2024).

For data set [1], the system named is gastric mucosal epithelial cells. The conditions noted are these: 500 μg/mL, 40 hours incubation, CCK-8.
Method: There is culture medium without inoculation of the cells with 100 μL per well. After incubation for 40 hours, the culture medium is discarded, 100 μL DMEM medium containing 10% cell counting kit 8 (CCK-8) is added to each well, and then incubated in the incubator for 2 hours. The value of optical density (OD) at 450 nm is monitored with a microplate reader for each well, and the cell viability is calculated based on the value of optical density.
In data set [2] the test system is MGC-803 subcutaneous gastric cancer model.
Method: In the embodiment of the disclosure, the mice used are 6-week-old female BALB/c-nude mice, specific pathogen-free (SPF) grade, and the weight at purchase is 17±1.5 g. purchased from Shanghai Jessie Experimental Animal Co., Ltd. Mice are raised in cages in clean animal rooms. The cages are ventilated through a central control system. The indoor temperature is 25±2° C., and the feed and water are used after autoclaved.
After one week of adaptive feeding of the nude mice, the body weight is 20±2 g. During the feeding period, the growth and mental state of the mice are observed every day. The mice are randomly divided into two groups, namely a cancer group and a healthy group. In the cancer group, MGC-803 cells are used to construct a subcutaneous gastric cancer model. […] After the cells are adhered to the wall and grown to full size, they are digested with pancreatic enzyme, centrifuged, washed twice with PBS to remove residual serum, resuspended with PBS at a cell density of approximately about 5*10^7 cells/mL, and a cell inoculation volume of each mouse is 100 μL. The cell suspension used for inoculation should be inoculated within half an hour. During this period, the cells are placed on ice to reduce the metabolic activity of the cells to maintain cell activity. The tumor is implanted in the area with abundant blood supply in the middle and rear of the armpit, and the size of the tumor is measured weekly after the tumor is formed. Generally, the induced volatolomics experiment can be started at the third week after the implantation of the cells.
The exhaled breath extraction device enriches the volatile substances in the exhaled breath of mice to the extraction core of headspace solid-phase microextraction (SPME), which is used to analyze the composition and relative content of the exhaled breath of mice before and after drug administration. A large mouth glass container with a volume of about 400 mL is used, the bottle mouth is frosted, and the sealing gasket, silicone plug and fixing clip are used to ensure sealing. The device is cleaned and dried before use. The mice needed to extract exhaled breath components are put into the glass container. The whole device is placed in a constant temperature environment of 25° C., sealed for 1 hour, and supplemented with oxygen at an interval of 15 minutes by injecting 10 mL of pure oxygen (99.9%) through the silicone plug with a glass syringe. After sealing for 1 hour, a 75 μm Car/PDMS extraction core is inserted into the glass container through the silicone plug, and the black extraction core is extended for headspace solid-phase microextraction for 30 minutes. The extraction process is carried out at a constant temperature of 25° C., and the oxygen is supplemented regularly according to the above process.
The above 10 healthy mice and 10 tumor bearing mice are taken and injected with MGC-803 cells subcutaneously as Day 0 in the experiment.
The target in data set [3] is T1, β-glucuronidase (Escherichia coli, UniProt P05804).
T1 construct: purchased Sigma-Aldrich 8162
The experiment in a line: In vitro enzymatic reaction with β-glucuronidase, headspace SPME GC-MS detection of phenol. It counts as biochemical. The conditions noted are these: pH 6.8 buffer, 37° C., 1 hour. The procedure: A buffer is prepared with sterile water, the main components of the buffer include 75 millimoles per liter (mM) potassium phosphate (KH2PO4) and 1% bovine serum albumin (BSA), and 1 mole per liter (M) potassium hydroxide (KOH) is used to adjust the pH to 6.8. A phenyl-β-D-glucuronide solution is prepared with deionized water at a concentration of 0.75 grams per liter (g/L). The experiment is divided into a reactive group (also referred to as experimental group) and a control group, and 2.6 mL of deionized water, 2 mL of buffer and 1 mL of phenyl-β-D-glucuronide solution are successively added into two 20 mL injection bottles. After shaking well, they are stabilized in a water bath at 37° C. for 10 minutes. 2 microliters (μL) of β-glucuronidase glycerol solution (enzyme content: 500 U) are added in the bottle of the reactive group, and 2 uL of glycerol is added in the bottle of the control group. The covers are quickly tightened for reacting in a water bath at 37° C. for 1 hour. After the reaction, the aged extraction core is used for headspace solid-phase microextraction (also referred to as solid phase microextraction) for 30 minutes.

Data set [4] can be described thus: Stability verification of phenyl-β-D-glucuronide PBS solution (UPLC-MS and PDA detector). It counts as physicochemical. The conditions noted are these: for peak area of phenyl-β-D-glucuronide: 400 μg/mL in PBS, PDA detector at 280 nm. Here is the method:
PBS is used as solvent to prepare a phenyl-β-D-glucuronide solution at a concentration of 400 micrograms per milliliter (μg/mL), 1 mL phenyl-β-D-glucuronide solution is added individually into 1.5-mL injection bottles and sealed. The four bottles of drug solutions are treated as follows: the bottle A is a ready-to-use drug immediately analyzed for composition using ultra performance liquid chromatography mass spectrometry (UPLC-MS); the bottle B is placed in a refrigerator at 4° C. for 2 weeks and then analyzed for composition using UPLC-MS; the bottle C is placed at room temperature (25° C.) for 1 week and then analyzed for composition using UPLC-MS; and the ready-to-use drug in bottle D is analyzed for composition using UPLC-MS and […] (PDA) detectors after heating for 7 hours at 38.5° C. in a water bath. In addition, a 20 parts per million (ppm) phenol standard solution is prepared for UPLC-MS and PDA analysis.
The results are shown in FIGS. 1A-1D, FIGS. 2A-2D, and FIGS. 3A-3E.
The main purpose of setting these three temperatures (i.e., room temperature, 4° C., and 38.5° C.) is to characterize that the drug can be stored in a 4° C. refrigerator or room temperature for a long time without decomposition or deterioration. From the peak area data, it can be seen that the drug can be stored in a 4° C. refrigerator for 2 weeks or at room temperature for 1 week, and the effective component of the drug, phenyl-β-D-glucuronide, is basically unchanged, so under the condition of qualified sealing conditions, the drug solution can be stored for a longer time, which has practical application potential.

T1 sequence (P05804 whole entry): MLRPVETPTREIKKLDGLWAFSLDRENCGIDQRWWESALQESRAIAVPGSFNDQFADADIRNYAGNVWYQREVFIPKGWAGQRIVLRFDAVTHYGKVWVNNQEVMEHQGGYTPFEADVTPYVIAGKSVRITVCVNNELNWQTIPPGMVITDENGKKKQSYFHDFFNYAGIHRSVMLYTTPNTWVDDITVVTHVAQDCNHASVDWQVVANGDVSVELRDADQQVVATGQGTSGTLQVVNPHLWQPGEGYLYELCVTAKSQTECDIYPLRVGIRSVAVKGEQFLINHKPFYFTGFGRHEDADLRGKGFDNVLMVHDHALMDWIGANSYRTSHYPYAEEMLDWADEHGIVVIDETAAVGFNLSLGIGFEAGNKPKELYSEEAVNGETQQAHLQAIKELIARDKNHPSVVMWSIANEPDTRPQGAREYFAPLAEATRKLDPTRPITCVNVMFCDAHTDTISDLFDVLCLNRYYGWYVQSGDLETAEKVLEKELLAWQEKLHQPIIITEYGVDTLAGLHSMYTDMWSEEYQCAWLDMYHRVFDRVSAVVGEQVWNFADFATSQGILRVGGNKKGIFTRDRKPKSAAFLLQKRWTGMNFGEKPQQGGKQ

As for `O=C(O)[C@H]1O[C@@H](Oc2ccccc2)[C@H](O)[C@@H](O)[C@@H]1O` [phenyl-β-D-glucuronide], the cell viability result in data set [1] was “greater than 90%”. The “phenol level in exhaled breath, tumor bearing mouse group versus healthy mouse group” value in data set [2] (Day 0 (no solid tumors), 200 μg/kg intravenously, Mann-Whitney U-test) was “consistent without significant difference”. In data set [2] (from the 10th day onwards (solid tumors about 100 mm^3), 200 μg/kg intravenously, p<0.01), the “phenol level in exhaled breath, tumor bearing mouse group versus healthy group” value was “significantly higher”. The “toxic or side effect in animal experiment” value in data set [2] (mouse, in vivo) is listed as “no toxic or side effect”. The “fitted curve parameter A (tumor volume=A+B*phenol level in exhaled breath)” value in data set [2] (tumor bearing mice, FIG. 6) came out at 2065116.64068±293370.09484. Moreover, the “fitted curve parameter B (tumor volume=A+B*phenol level in exhaled breath)” value in data set [2] (tumor bearing mice, FIG. 6) worked out at 26167.51388±981.4. Besides, the “decomposition of substrate without β-glucuronidase” value in data set [3] (control group, glycerol instead of enzyme) is on record as “not decomposed”. In data set [3] (experimental group, 500 U enzyme), the “phenol production under the action of β-glucuronidase” value is “produces phenol”. Besides, the “peak area of phenyl-β-D-glucuronide” value in data set [4] (bottle A, newly prepared) is 2143; in data set [4] (bottle B, refrigerator at 4° C. for 2 weeks) it was 2142; in data set [4] (bottle C, room temperature (25° C.) for 1 week), 2144; in data set [4] (bottle D, heated 7 hours at 38.5° C. in a water bath), 2160. Moreover, the “storage time of PBS solution” value in data set [4] (4° C. refrigerator) is recorded as “at least 2 weeks”; in data set [4] (room temperature), “at least 1 week”. Also, the “new substances produced (other peaks) in the four bottles of solutions” value in data set [4] (all four storage conditions, UPLC-MS and PDA) is recorded as “no other peaks of the new substances produced”. Further, the “peak of phenol in the four bottles of solutions compared with phenol standard” value in data set [4] (all four storage conditions, versus 20 ppm phenol standard) is “no peak of phenol”. Also, the “self-decomposition without the action of enzymes” value in data set [4] (normal body temperature range (generally less than 38.5° C.)) is “will not decompose by itself”.
